Measurements as given in patent US20040063662A1, “Selenophene anti-tumor agents” (priority 1996, published 2004).

Legend:
[1] = tested on: CCRF-CEM; test: NCI human tumor cell panel: CCRF-CEM (Leukemia); format: cell-based; conditions: Leukemia
[2] = tested on: HL-60(TB); test: NCI human tumor cell panel: HL-60(TB) (Leukemia); format: cell-based; conditions: Leukemia
[3] = tested on: K-562; test: NCI human tumor cell panel: K-562 (Leukemia); format: cell-based; conditions: K562, K-562, Leukemia
[4] = tested on: MOLT-4; test: NCI human tumor cell panel: MOLT-4 (Leukemia); format: cell-based; conditions: MOLT-4, Leukemia
[5] = tested on: RPMI-8226; test: NCI human tumor cell panel: RPMI-8226 (Leukemia); format: cell-based; conditions: RPMI-8226, Leukemia
[6] = tested on: A549/ATCC; test: NCI human tumor cell panel: A549/ATCC (Non-Small Cell Lung Cancer); format: cell-based; conditions: Non-Small Cell Lung Cancer
[7] = tested on: NCI-H226; test: NCI human tumor cell panel: NCI-H226 (Non-Small Cell Lung Cancer); format: cell-based; conditions: NCI-H226, Non-Small Cell Lung Cancer
[8] = tested on: HCT-116; test: NCI human tumor cell panel: HCT-116 (Colon Cancer); format: cell-based; conditions: HCT-116, Colon Cancer
[9] = tested on: KM12; test: NCI human tumor cell panel: KM12 (Colon Cancer); format: cell-based; conditions: KM12, Colon Cancer
[10] = tested on: SW-620; test: NCI human tumor cell panel: SW-620 (Colon Cancer); format: cell-based; conditions: SW-620, Colon Cancer
[11] = tested on: SF-268; test: NCI human tumor cell panel: SF-268 (CNS Cancer); format: cell-based; conditions: SF-268, CNS Cancer
[12] = tested on: MALME-3M; test: NCI human tumor cell panel: MALME-3M (Melanoma); format: cell-based; conditions: MALME-3M, Melanoma
[13] = tested on: SK-MEL-5; test: NCI human tumor cell panel: SK-MEL-5 (Melanoma); format: cell-based; conditions: SK-MEL-5, Melanoma
[14] = tested on: UACC-257; test: NCI human tumor cell panel: UACC-257 (Melanoma); format: cell-based; conditions: UACC-257, Melanoma
[15] = tested on: UACC-62; test: NCI human tumor cell panel: UACC-62 (Melanoma); format: cell-based; conditions: UACC-62, Melanoma
[16] = tested on: OVCAR-3; test: NCI human tumor cell panel: OVCAR-3 (Ovarian Cancer); format: cell-based; conditions: OVCAR-3, Ovarian Cancer
[17] = tested on: OVCAR-8; test: NCI human tumor cell panel: OVCAR-8 (Ovarian Cancer); format: cell-based; conditions: OVCAR-8, Ovarian Cancer
[18] = tested on: SK-OV-3; test: NCI human tumor cell panel: SK-OV-3 (Ovarian Cancer); format: cell-based; conditions: SK-OV-3, Ovarian Cancer
[19] = tested on: A498; test: NCI human tumor cell panel: A498 (Renal Cancer); format: cell-based; conditions: A498, Renal Cancer
[20] = tested on: ACHN; test: NCI human tumor cell panel: ACHN (Renal Cancer); format: cell-based; conditions: Renal Cancer
[21] = tested on: RXF-393; test: NCI human tumor cell panel: RXF-393 (Renal Cancer); format: cell-based; conditions: RXF-393, Renal Cancer
[22] = tested on: SN12C; test: NCI human tumor cell panel: SN12C (Renal Cancer); format: cell-based; conditions: Renal Cancer
[23] = tested on: DU-145; test: NCI human tumor cell panel: DU-145 (Prostate Cancer); format: cell-based; conditions: DU-145, Prostate Cancer
[24] = tested on: MCF7; test: NCI human tumor cell panel: MCF7 (Breast Cancer); format: cell-based; conditions: MCF7, Breast Cancer
[25] = tested on: MDA-MB-231/ATCC; test: NCI human tumor cell panel: MDA-MB-231/ATCC (Breast Cancer); format: cell-based; conditions: Homo sapiens, MDA-MB-231, MDA-MB-231/ATCC, Breast Cancer
[26] = tested on: T-47D; test: NCI human tumor cell panel: T-47D (Breast Cancer); format: cell-based; conditions: T47D, Breast Cancer
[27] = tested on: panel of sixty different human tumor cell lines; test: NCI human tumor cell panel: whole panel (mean graph summary)
[28] = read-out: Log10 GI50 (converted)
[29] = read-out: Log10 TGI (converted)

`OCc1ccc(-c2ccc(-c3cccs3)[se]2)s1` [NSC 675344] gave a GI50 [1, 28] greater than 100 µM, an IC (TGI) [1, 29] greater than 100 µM and a GI50 [2, 28] greater than 100 µM. The IC (TGI) ([2]; read-out: Log10 TGI) was greater than 100 µM, the GI50 [3, 28] was 0.0437 µM and the IC (TGI) [3, 29] was greater than 100 µM. For the same compound, the GI50 [4, 28] was greater than 100 µM, the IC (TGI) [4, 29] was greater than 100 µM and the GI50 [5, 28] was greater than 100 µM. For the same compound, the IC (TGI) ([5]; read-out: Log10 TGI) was greater than 100 µM, the GI50 [6, 28] was 45.7 µM and the IC (TGI) [6, 29] was greater than 100 µM. The GI50 [7, 28] was less than 0.01 µM, the IC (TGI) [7, 29] was less than 0.01 µM and the GI50 [8, 28] was less than 0.01 µM. It also gave an IC (TGI) [8, 29] of 0.0417 µM, a GI50 [9, 28] greater than 100 µM and an IC (TGI) [9, 29] greater than 100 µM. It also gave a GI50 [10, 28] greater than 100 µM, an IC (TGI) [10, 29] greater than 100 µM and a GI50 [11, 28] of 23.4 µM. It also gave an IC (TGI) [11, 29] greater than 100 µM, a GI50 [12, 28] greater than 100 µM and an IC (TGI) [12, 29] greater than 100 µM. The GI50 [13, 28] was greater than 100 µM, the IC (TGI) [13, 29] was greater than 100 µM and the GI50 [14, 28] was less than 0.01 µM. It also gave an IC (TGI) [14, 29] of 0.0186 µM, a GI50 [15, 28] of less than 0.01 µM and an IC (TGI) [15, 29] of 0.0141 µM. It also gave a GI50 [16, 28] of less than 0.01 µM, an IC (TGI) [16, 29] greater than 100 µM and a GI50 [17, 28] greater than 100 µM. It also gave an IC (TGI) [17, 29] greater than 100 µM, a GI50 [18, 28] of 16.6 µM and an IC (TGI) [18, 29] greater than 100 µM. For the same compound, the GI50 [19, 28] was less than 0.01 µM, the IC (TGI) [19, 29] was 0.0182 µM and the GI50 [20, 28] was 12.9 µM. For the same compound, the IC (TGI) [20, 29] was 83.2 µM, the GI50 [21, 28] was 15.8 µM and the IC (TGI) [21, 29] was 52.5 µM. It also gave a GI50 [22, 28] greater than 100 µM, an IC (TGI) [22, 29] greater than 100 µM and a GI50 [23, 28] of 36.3 µM. The IC (TGI) [23, 29] was greater than 100 µM, the GI50 [24, 28] was 0.126 µM and the IC (TGI) [24, 29] was greater than 100 µM. The GI50 [25, 28] was 19.1 µM, the IC (TGI) [25, 29] was greater than 100 µM and the GI50 [26, 28] was 0.617 µM. The IC (TGI) [26, 29] was greater than 100 µM, the GI50 ([27]; Homo sapiens, read-out: Log10 GI50, cell line not given (converted)) was 0.0871 µM and the CC50 ([27]; Homo sapiens, read-out: Log10 LC50, cell line not given (converted)) was greater than 100 µM. For the same compound, the “Log10 TGI” value ([27]; cell line not given) was greater than −4.00.
